Assay results from patent US20260078341A1, “TREATMENT OF CANCER USING CHIMERIC ANTIGEN RECEPTOR” (Novartis AG, priority 2014, published 2026).
Several values for one entry are separate records, joined by “and”; a condition that tells them apart may be missing. Identical values can stand only once. Like-named read-outs stand apart in the source and are kept apart here. Marks after values point to notes of the source that are not given here.

How the values were obtained:
[1] = system: A/H3N2 strain A/Victoria/361/11; test: Seroconversion to heterologous A/H3N2 strain; format: in vivo, human; conditions: for Percentage of subjects who seroconvert to heterologous strain A/H3N2 A/Victoria/361/11: 4 weeks after seasonal influenza vaccination
[2] = system: A/H1N1 strain A/New Jersey/8/76; format: in vivo, human; conditions: 4 weeks after seasonal influenza vaccination
[3] = Exercise and energy in elderly subjects; format: in vivo, human
[4] = Questionnaires on energy and exercise one year after dosing; format: in vivo, human; conditions: 0.5 mg daily dosing cohort
[5] = system: PD-1 positive CD4 and CD8 T cells; format: in vivo, human
[6] = system: H1N1 A/California/07/2009; test: Hemagglutination inhibition titers after influenza vaccination, A/H1N1 vaccine strain; format: in vivo, human; conditions: for HI GMT ratio (CV %) A/H1N1: GMT at week 4 post vaccination/GMT at baseline
Experimental: The trial was observer-blind because the placebo in the RAD001 0.5 mg daily and 20 mg weekly cohorts differed slightly from the RAD001 tablets in those cohorts. […] The treatment duration for all cohorts was 6 weeks during which time subjects underwent safety evaluations in the clinic every 2 weeks. After subjects had been dosed for 4 weeks, RAD001 steady state levels were measured pre-dose and at one hour post dose. After completing the 6 week course of study drug, subjects were given a 2 week drug free break to reverse any possible RAD001-induced immunosuppression, and then were given a 2012 seasonal influenza vaccination (Agrippal®, Novartis Vaccines and Diagnostics, Siena, Italy) containing the strains H1N1 A/California/07/2009, H3N2 A/Victoria/210/2009, B/Brisbane/60/2008. Four weeks after influenza vaccination, subjects had serum collected for influenza titer measurements. Antibody titers to the 3 influenza vaccine strains as well as to 2 heterologous strains (A/H1N1 strain A/New Jersy/8/76 and A/H3N2 strain A/Victoria/361/11) were measured by standard hemagglutination inhibition assay (Kendal, A P et al. (1982) Concepts and procedures for laboratory-based influenza surveillance. Atlanta: Centers for Disease Control and Prevention B17-B35). Levels of IgG and IgM specific for the A/H1N1/California/07/2009 were measured in serum samples taken before and 4 weeks after influenza vaccination as described previously (Spensieri, F. et al. (2013) Proc. Natl. Acad. Sci. USA 110:14330-14335). Results were expressed as fluorescence intensity.
The primary analysis of geometric mean titer ratios was done using a normal Bayesian regression model with non-informative priors. This model was fitted to each antibody titer on the log scale. The primary outcome in each model was the Day 84 measurement. The Day 63 measurement was included in the outcome vector. The model fitted using SAS 9.2 proc mixed with the prior statement. The covariance structure of the matrix was considered as unstructured (option type=UN). A flat prior was used. For the secondary analysis of seroconversion rates, logistic regression was used.
The ability of RAD001 to improve immune function in elderly volunteers was evaluated by measuring the serologic response to the 2012 seasonal influenza vaccine. The hemagglutination inhibition (HI) geometric mean titers (GMT) to each of the 3 influenza vaccine strains at baseline and 4 weeks after influenza vaccination are provided in Table 6. The primary analysis variable was the HI GMT ratio (4 weeks post vaccination/baseline). […] This endpoint was chosen because a 1.2-fold increase in the influenza GMT ratio induced by the MF-59 vaccine adjuvant was associated with a decrease in influenza illness (Iob, A et al. (2005) Epidemiol Infect 133:687-693).
Rates of seroconversion 4 weeks after influenza vaccination were also evaluated. Seroconversion was defined as the change from a negative pre-vaccination titer (i.e., HI titer <1:10) to post-vaccination HI titer ≥1:40 or at least 4-fold increase from a non-negative (>1:10) pre-vaccination HI titer.

Q: What does the source list for CO[C@H]1C[C@@H]2CC[C@@H](C)[C@@](O)(O2)C(=O)C(=O)N2CCCC[C@H]2C(=O)O[C@H]([C@H](C)C[C@@H]2CC[C@@H](OCCO)[C@H](OC)C2)CC(=O)[C@H](C)/C=C(\C)[C@@H](O)[C@@H](OC)C(=O)[C@H](C)C[C@H](C)/C=C/C=C/C=C/1C [RAD001, (1R,9S,12S,15R,16E,18R,19R,21R,23S,24E,26E,28E,30S,32S,35R)-1,18-dihydroxy-12-{(1R)-2-[(1S,3R,4R)-4-(2-hydroxyethoxy)-3-methoxycyclohexyl]-1-methylethyl}-19,30-dimethoxy-15,17,21,23,29,35-hexamethyl-11,36-dioxa-4-azatricyclo[30.3.1.0^4,9]hexatriaconta-16,24,26,28-tetraene-2,3,10,14,20-pentaone]?
A: Percentage of subjects who seroconvert to heterologous strain A/H3N2 A/Victoria/361/11 ([1]; RAD001 0.5 mg daily): 38%; Percentage of subjects who seroconvert to heterologous strain A/H3N2 A/Victoria/361/11 ([1]; RAD001 5 mg weekly): 39%*; Percentage of subjects who seroconvert to heterologous strain A/H3N2 A/Victoria/361/11 ([1]; RAD001 20 mg weekly): 40%*; H3N2 heterologous strain seroconversion rate ([1]; pooled RAD001 cohorts, versus 20% placebo, p=0.007): 39%; average RAD001 trough level (0.5 mg daily dosing cohort): 0.9 ng/mL; average RAD001 trough level (20 mg weekly dosing cohort): 0.7 ng/mL; trough level of the study regimens relative to oncology and transplant regimens, fold lower (dosing regimens used in the immunization study): 3-20 fold; Percentage of subjects who seroconvert to heterologous strain A/H1N1 A/NewJersey/8/76 ([2]; RAD001 5 mg weekly): 16%; Percentage of subjects who seroconvert to heterologous strain A/H1N1 A/NewJersey/8/76 ([2]; RAD001 20 mg weekly): 8%; exercise and energy [3]: increases in exercise and energy; energy and exercise ability as compared to placebo [4]: increased energy and exercise ability; decrease in PD-1 positive CD8 T cells compared to placebo cohort ([5]; in vivo): 37.4% and 41.4%; decrease in PD-1 positive CD4 T cells compared to placebo cohort ([5]; week 6, pooled RAD cohort (n=84), p=0.03): 30.2%; decrease in PD-1 positive CD4 T cells compared to placebo cohort ([5]; week 12, pooled RAD cohort, p=0.05): 32.7%; HI GMT (CV %) A/H1N1 ([6]; Baseline (2 weeks prior to influenza vaccination), RAD001 0.5 mg daily): 102.8 (186.9); HI GMT (CV %) A/H1N1 ([6]; Baseline (2 weeks prior to influenza vaccination), RAD001 5 mg weekly): 84.2 (236.4); HI GMT (CV %) A/H1N1 ([6]; Baseline (2 weeks prior to influenza vaccination), RAD001 20 mg weekly): 90.1 (188.4); HI GMT ratio (CV %) A/H1N1 ([6]; RAD001 0.5 mg daily): 2.6 (302.5); HI GMT ratio (CV %) A/H1N1 ([6]; RAD001 5 mg weekly): 2.5 (214.3); HI GMT ratio (CV %) A/H1N1 ([6]; RAD001 20 mg weekly): 1.8 (201.5); Percent of subjects with seroconversion to influenza 4 weeks after vaccination, H1N1 ([6]; Intention to Treat Population, 0.5 mg): 27%; Percent of subjects with seroconversion to influenza 4 weeks after vaccination, H1N1 ([6]; Intention to Treat Population, 5 mg): 27%; Percent of subjects with seroconversion to influenza 4 weeks after vaccination, H1N1 ([6]; Intention to Treat Population, 20 mg): 17%; Percent of subjects with seroconversion to influenza 4 weeks after vaccination, H1N1 ([6]; Subjects with Baseline Titers <=40, 0.5 mg): 42%; Percent of subjects with seroconversion to influenza 4 weeks after vaccination, H1N1 ([6]; Subjects with Baseline Titers <=40, 5 mg): 45%; Percent of subjects with seroconversion to influenza 4 weeks after vaccination, H1N1 ([6]; Subjects with Baseline Titers <=40, 20 mg): 36%; HI GMT (CV %) A/H1N1 ([6]; Week 4 after influenza vaccination, RAD001 0.5 mg daily): 190.2 (236.9); HI GMT (CV %) A/H1N1 ([6]; Week 4 after influenza vaccination, RAD001 5 mg weekly): 198.73(195.6); HI GMT (CV %) A/H1N1 ([6]; Week 4 after influenza vaccination, RAD001 20 mg weekly): 129.7 (175.9)
